We go through five molecules from US20220127297A1, “Novel Antibacterial 3"-Derivatives Of 4,6-Disubstituted 2,5-Dideoxystreptamine Aminoglycoside Antibiotics” (AGILeBiotics B.V., priority 2018, published 2022).

Values after ≈ are worked out from the molar mass of the structure shown.

This assay concerns A. baumannii DSM 105126. Nature of the assay: MIC 50, broth micro-dilution, DSM strains. The settings on record: Acinetobacter baumannii, DSM105126, read-out: MIC 50. It is filed as cell-based, Acinetobacter baumannii. From the text: 3.2 Against Selected Bacteria of the ESKAPE Panel and Enterococcus faecalis (DSM Strains)
Tested reference compounds. Amikacin sulfate (Cat. No. 01693, Chem-Impex), Gentamicin sulfate (Cat. No. G4918, Sigma Aldrich).
Microbial strains. Enterococcus faecalis DSM 2570, Klebsiella pneumoniae DSM 26371, Acinetobacter baumannii DSM 105126, Enterobacter cloacae 3MRGN (clinical bronchial aspirate isolate).
Culture media and equipment. BBL™ Mueller Hinton Broth 2 (Lot. BCBW1143, Cat. No. 70192, Sigma); Trypcase Soy Blood-agar plates (Cat. No. 43001, Biomérieux); Cryoinstant (contains 15% glycerol; Cat. No. 822070ZA, VWR International); GasPak™ EZ Standard Incubation Container (Cat. No. 260671, Becton Dickinson); GasPak™ EZ Campy Container System Sachets (Cat. No. 260680, Becton Dickinson); 96-well deep well plate, 1 mL (Cat. No. 0030506.200, Eppendorf); Plate lid (Cat. No. 0030131.525, Eppendorf); 96-well plate, F-bottom (Cat. No. 260860, Nunc); Incubator (Sartorius Certomat BS-1); Laminar flow (Heraeus HS12); UV/VIS meter (Perkin Elmer Lambda Bio+); Platereader (Tecan Infinite M200 Pro).
Compound preparation. Compounds were prepared in MH2 media at a concentration of 5 mM and stored at 4° C. For testing, solutions of 128 μM were prepared in MH2, for tests against E. faecalis a solution of 512 μM was prepared. Out of these working solutions, 400 μL was transferred to wells in the first column of 96-well deep well plates. Each compound was transferred in triplicate. Plates were previously filled with 200 μL of MH2 media in all wells except for the wells in the first column. After compound and antibiotic addition, the compounds were serial two-fold diluted by transferring 200 μL from the first to the second column, then from the second to the third column and so on. Finally, 200 μL was removed from the last column.
Inoculum preparation. Microorganisms used were all revived from 15% glycerol storage in Croinstant tubes at −28° C. by plating them on blood agar plates. A. baumanni, and E. cloacae were grown aerobically at 37° C., E. faecalis was grown microaerophilically at 37° C., and K. pneumoniae was grown aerobically at 37° C. Plates were stored at 4° C. for up to two weeks, after which new plates were prepared from −28° C. A single colony was inoculated in MH2 media and grown at 37° C. and 200 rpm to an optical density (measured by UV/Vis spectroscopy) of 0.6-0.8 at 600 nm. Out of these suspensions, actual inoculums were prepared by diluting them to an optical density of 0.1 in MH2 media. From these inoculums, 200 μL was transferred to each well, resulting in a final compound concentration range of 64 μM-31.3 nM for, K. pneumoniae, A. baumanni, and E. cloacae, and 256 μM-125 nM for E. faecalis. Plates inoculated with E. faecalis were placed inside a GasPak™ Container System with GasPak™ Campy Container System sachets. All plates were incubated at 200 rpm for 18 h under the microorganism culturing conditions mentioned above.
MIC determination. After 18 h of growth, 200 μL was transferred to a 96-well F-bottom plate. The optical density was determined by a plate reader at 600 nm, with 10 s shaking before reading. Triplicate measurements were averaged, and a growth curve was plotted in Excel. The first column in which the growth reached half the value of maximum growth was determined as the MIC50 value for that particular compound.
MIC50. The MIC50 of a compound was assigned at which the bacterial growth reached half the value of maximum growth.
In general terms: Dilution methods test growth across graded concentrations, often in twofold steps.
For `C[C@@H](N)CCNC(=N)NC1[C@@H](O)C(OC2[C@@H](F)[C@H](O[C@H]3OC(CN)[C@@H](O)CC3N)C(N)C[C@H]2NC(=O)[C@@H](O)CCN)O[C@H](CO)[C@H]1O` (stereo partly drawn) [ABX5047, Tobra-AHB-F-Gua (R) 3-amino-butyl], the MIC50 was 0.125 µM (≈ 0.0855 µg/mL). The figure for `N=C(NCc1ccncc1)NC1[C@@H](O)C(OC2[C@@H](F)[C@H](O[C@H]3OC(CN)[C@@H](O)CC3N)C(N)C[C@H]2NC(=O)[C@@H](O)CCN)O[C@H](CO)[C@H]1O` (some centres unmarked) [ABX5048, Tobra-AHB-F-Gua pyridin-4-yl methyl] is 0.5 µM (≈ 0.352 µg/mL); for `N=C(NCc1cnc[nH]1)NC1[C@@H](O)C(OC2[C@@H](F)[C@H](O[C@H]3OC(CN)[C@@H](O)CC3N)C(N)C[C@H]2NC(=O)[C@@H](O)CCN)O[C@H](CO)[C@H]1O` (some centres unmarked) [ABX5050, Tobra-AHB-F-Gua imidazol-5-yl methyl] it is 0.5 µM (≈ 0.346 µg/mL); for `N=C(NCC1CCOC1)NC1[C@@H](O)C(OC2[C@@H](F)[C@H](O[C@H]3OC(CN)[C@@H](O)CC3N)C(N)C[C@H]2NC(=O)[C@@H](O)CCN)O[C@H](CO)[C@H]1O` (some centres unmarked) [ABX5051, Tobra-AHB-F-Gua tetrahydrofuran-3-yl methyl] it is 0.5 µM (≈ 0.348 µg/mL).

Consider `NCC[C@H](O)C(=O)N[C@@H]1C[C@H](N)[C@@H](O[C@H]2O[C@H](CN)[C@@H](O)[C@H](O)[C@H]2O)[C@H](O)[C@H]1O[C@H]1O[C@H](CO)[C@@H](O)[C@H](N)[C@H]1O` [Amikacin, amikacin, reference compound], for which the MIC50 was 0.5 µM (≈ 0.293 µg/mL).
